Drawing on US12594276B2, “Inhibitors of human immunodeficiency virus replication” (ViiV Healthcare UK (No.5) Limited, priority 2024, dated 2026), this text covers EC50 and CC50 for ten compounds.

Series [1] deals with recombinant NL4-3 virus (nef section replaced with Renilla luciferase gene) in MT-2 cells. Put plainly: HIV cell culture assay (antiviral activity, luciferase readout). As to conditions: Renilla, NL43, MT-2 cells infected for 4-5 days with recombinant NL4-3 Renilla luciferase virus. Type of series: cell-based. As for the experimental part:
HIV cell culture assay—MT-2 cells, 293T cells and the proviral DNA clone of NL4-3 virus were obtained from the NIH AIDS Research and Reference Reagent Program. MT-2 cells were propagated in RPMI 1640 media supplemented with 10% heat inactivated fetal bovine serum (FBS), […]. The 293T cells were propagated in DMEM media supplemented with 10% heat inactivated FBS, […]. A recombinant NL4-3 proviral clone, in which a section of the nef gene was replaced with the Renilla luciferase gene, was used to make the reference virus used in these studies. The recombinant virus was prepared through transfection of the recombinant NL4-3 proviral clone into 293T cells using Transit-293 Transfection Reagent from Mirus Bio LLC (Madison, WI). Supernatant was harvested after 2-3 days and the amount of virus present was titered in MT-2 cells using luciferase enzyme activity as a marker by measuring luciferase enzyme activity. Luciferase was quantitated using the EnduRen Live Cell Substrate from Promega (Madison, WI). Antiviral activities of compounds toward the recombinant virus were quantified by measuring luciferase activity in MT-2 cells infected for 4-5 days with the recombinant virus in the presence of serial dilutions of the compound.
The 50% effective concentration (EC50) was calculated by using the exponential form of the median effect equation where (Fa)=1/[1+(ED50/drug conc.)m](Johnson V A, Byington R T. Infectivity Assay. In Techniques in HIV Research. ed. Aldovini A, Walker B D. 71-76. New York: Stockton Press. 1990). Curve fitting and analysis were performed with ActivityBase XE Runner software version 9.1.0.4 using model 203 (ID Business Solutions, LTD, Guildford, UK).

Series [2] can be described thus: Compound cytotoxicity, XTT-based colorimetric assay. Type of series: cell-based. Particulars: human; uninfected MT2 cells, day 4, XTT; read-out: CC50. How it is done: Compound cytotoxicity and the corresponding CC50 values were determined using the same protocol as described in the antiviral assay except that uninfected cells were used. Cytotoxicity was assessed on day 4 in uninfected MT2 cells by using an XTT (2,3-bis[2-Methoxy-4-nitro-5-sulfophenyl]-2H-tetrazolium-5-carboxyanilide inner salt)-based colorimetric assay (Sigma-Aldrich, St Louis, Mo).

One may read the EC50 as the concentration needed to bring the measured effect to its halfway point. A word on the CC50: it is the concentration giving 50% cytotoxicity. On to `Cc1cc(C2CCC(F)(F)CC2)nc2nc([C@H](Cc3cc(F)cc(F)c3)NC(=O)Cn3nc(C4CC4)c4c3C[C@@H]3C[C@H]43)n(-c3ccc(Cl)c4c(NS(C)(=O)=O)nn(CCN5C[C@H]6C[C@@H]5CO6)c34)c(=O)c12` (atropisomer, axis not shown; (P)) [Example 9, N-[(1S)-1-[(3P)-3-(4-chloro-3-methanesulfonamido-1-{2-[(1R,4R)-2-oxa-5-azabicyclo[2.2.1]heptan-5-yl]ethyl}-1H-indazol-7-yl)-7-(4,4-difluorocyclohexyl)-5-methyl-4-oxo-3H,4H-pyrido[2,3-d]pyrimidin-2-yl]-2-(3,5-difluorophenyl)ethyl]-2-[(2S,4S)-9-cyclopropyl-7,8-diazatricyclo[4.3.0.0^2,^4]nona-1(6),8-dien-7-yl]acetamide], for which, in series [1], the EC50 was 0.009 nM. Also, the CC50 at 4 days in series [2] was greater than 50 nM.
In the same order, the values of `COCCNCCn1nc(NS(C)(=O)=O)c2c(Cl)ccc(-n3c([C@H](Cc4cc(F)cc(F)c4)NC(=O)Cn4nc(C5CC5)c5c4C[C@@H]4C[C@H]54)nc4nc(C5CCC(F)(F)CC5)cc(C)c4c3=O)c21` (atropisomer, axis not shown; (P)) [Example 10, N-[(1S)-1-[(3P)-3-(4-chloro-3-methanesulfonamido-1-{2-[(2-methoxyethyl)amino]ethyl}-1H-indazol-7-yl)-7-(4,4-difluorocyclohexyl)-5-methyl-4-oxo-3H,4H-pyrido[2,3-d]pyrimidin-2-yl]-2-(3,5-difluorophenyl)ethyl]-2-[(2S,4S)-9-cyclopropyl-7,8-diazatricyclo[4.3.0.0^2,^4]nona-1(6),8-dien-7-yl]acetamide] are 0.06 nM and greater than 50 nM.
For `Cc1cc(C2(F)CCC(F)(F)CC2)nc2nc([C@H](Cc3cc(F)cc(F)c3)NC(=O)Cn3nc(C(F)F)c4c3C(F)(F)[C@@H]3C[C@H]43)n(-c3ccc(Cl)c4c(NS(C)(=O)=O)nn(CCN5C[C@H](F)C[C@H](F)C5)c34)c(=O)c12` (atropisomer, axis not shown; (P)) [Example 11, N-[(1S)-1-[(3P)-3-(4-chloro-1-{2-[(3R,5S)-3,5-difluoropiperidin-1-yl]ethyl}-3-methanesulfonamido-1H-indazol-7-yl)-5-methyl-4-oxo-7-(1,4,4-trifluorocyclohexyl)-3H,4H-pyrido[2,3-d]pyrimidin-2-yl]-2-(3,5-difluorophenyl)ethyl]-2-[(2S,4R)-9-(difluoromethyl)-5,5-difluoro-7,8-diazatricyclo[4.3.0.0^2,4]nona-1(6),8-dien-7-yl]acetamide], in series [1], the EC50 came to 0.009 nM. Further, the CC50 at 4 days in series [2] was greater than 20000 nM.
With `Cc1cc(C2(F)CCC(F)(F)CC2)nc2nc([C@H](Cc3cc(F)cc(F)c3)NC(=O)Cn3nc(C4CC4)c4c3C[C@@H]3C[C@H]43)n(-c3ccc(Cl)c4c(NS(C)(=O)=O)nn(CCN5C[C@H](F)C[C@H](F)C5)c34)c(=O)c12` (atropisomer, axis not shown; (P)) [Example 12, N-[(1S)-1-[(3P)-3-(4-chloro-1-{2-[(3R,5S)-3,5-difluoropiperidin-1-yl]ethyl}-3-methanesulfonamido-1H-indazol-7-yl)-5-methyl-4-oxo-7-(1,4,4-trifluorocyclohexyl)-3H,4H-pyrido[2,3-d]pyrimidin-2-yl]-2-(3,5-difluorophenyl)ethyl]-2-[(2S,4S)-9-cyclopropyl-7,8-diazatricyclo[4.3.0.0^2,4]nona-1(6),8-dien-7-yl]acetamide], the EC50 in series [1] was found to be 0.012 nM. The CC50 at 4 days in series [2] was greater than 20000 nM.
The like results for `Cc1cc(C2CCC(F)(F)CC2)nc2nc([C@H](Cc3cc(F)cc(F)c3)NC(=O)Cn3nc(C4CC4)c4c3C[C@@H]3C[C@H]43)n(-c3ccc(Cl)c4c(NS(C)(=O)=O)nn(CCN5CC(C)(C)OC(C)(C)C5)c34)c(=O)c12` (atropisomer, axis not shown; (P)) [Example 13, N-[(1S)-1-[(3P)-3-{4-chloro-3-methanesulfonamido-1-[2-(2,2,6,6-tetramethylmorpholin-4-yl)ethyl]-1H-indazol-7-yl}-7-(4,4-difluorocyclohexyl)-5-methyl-4-oxo-3H,4H-pyrido[2,3-d]pyrimidin-2-yl]-2-(3,5-difluorophenyl)ethyl]-2-[(2S,4S)-9-cyclopropyl-7,8-diazatricyclo[4.3.0.0^2,4]nona-1(6),8-dien-7-yl]acetamide] were, in that order, 0.011 nM and greater than 20000 nM.
The like results for `Cc1cc(C2CCC(F)(F)CC2)nc2nc([C@H](Cc3cc(F)cc(F)c3)NC(=O)Cn3nc(C(F)F)c4c3C(F)(F)[C@@H]3C[C@H]43)n(-c3ccc(Cl)c4c(NS(C)(=O)=O)nn(CCN5CCCC(F)(F)C5)c34)c(=O)c12` (atropisomer, axis not shown; (P)) [Example 14, N-[(1S)-1-[(3P)-3-{4-chloro-1-[2-(3,3-difluoropiperidin-1-yl)ethyl]-3-methanesulfonamido-1H-indazol-7-yl}-7-(4,4-difluorocyclohexyl)-5-methyl-4-oxo-3H,4H-pyrido[2,3-d]pyrimidin-2-yl]-2-(3,5-difluorophenyl)ethyl]-2-[(2S,4R)-9-(difluoromethyl)-5,5-difluoro-7,8-diazatricyclo[4.3.0.0^2,^4]nona-1(6),8-dien-7-yl]acetamide] were, in that order, 0.009 nM and greater than 50 nM.
Regarding `Cc1cc(C2CCC(F)(F)CC2)nc2nc([C@H](Cc3cc(F)cc(F)c3)NC(=O)Cn3nc(C(F)F)c4c3C(F)(F)[C@@H]3C[C@H]43)n(-c3ccc(Cl)c4c(NS(C)(=O)=O)nn(CCN5CCCC(F)(F)CC5)c34)c(=O)c12` (atropisomer, axis not shown; (P)) [Example 15, N-[(1S)-1-[(3P)-3-{4-chloro-1-[2-(4,4-difluoroazepan-1-yl)ethyl]-3-methanesulfonamido-1H-indazol-7-yl}-7-(4,4-difluorocyclohexyl)-5-methyl-4-oxo-3H,4H-pyrido[2,3-d]pyrimidin-2-yl]-2-(3,5-difluorophenyl)ethyl]-2-[(2S,4R)-9-(difluoromethyl)-5,5-difluoro-7,8-diazatricyclo[4.3.0.0^2,^4]nona-1(6),8-dien-7-yl]acetamide], the EC50 in series [1] was 0.01 nM. Besides, in series [2], the CC50 at 4 days is greater than 50 nM.
On to `Cc1cc(C2CCC(F)(F)CC2)nc2nc([C@H](Cc3cc(F)cc(F)c3)NC(=O)Cn3nc(C(F)F)c4c3C(F)(F)[C@@H]3C[C@H]43)n(-c3ccc(Cl)c4c(NS(C)(=O)=O)nn(CCN5CC(C)(C)OC(C)(C)C5)c34)c(=O)c12` (atropisomer, axis not shown; (P)) [Example 17, N-[(1S)-1-[(3P)-3-{4-chloro-3-methanesulfonamido-1-[2-(2,2,6,6-tetramethylmorpholin-4-yl)ethyl]-1H-indazol-7-yl}-7-(4,4-difluorocyclohexyl)-5-methyl-4-oxo-3H,4H-pyrido[2,3-d]pyrimidin-2-yl]-2-(3,5-difluorophenyl)ethyl]-2-[(2S,4R)-9-(difluoromethyl)-5,5-difluoro-7,8-diazatricyclo[4.3.0.0^2,^4]nona-1(6),8-dien-7-yl]acetamide], for which the EC50 in series [1] was 0.012 nM. In addition, in series [2], the CC50 at 4 days is greater than 50 nM.
In the same order, the values of `CS(=O)(=O)Nc1nn(CCN2CCC(F)(F)C2)c2c(-n3c([C@H](Cc4cc(F)cc(F)c4)NC(=O)Cn4nc(C5CC5)c5c4C[C@@H]4C[C@H]54)nc4nc(C5CCC(F)(F)CC5)ccc4c3=O)ccc(Cl)c12` (atropisomer, axis not shown; (P)) [Example 24, N-[(1S)-1-[(3P)-3-{4-chloro-1-[2-(3,3-difluoropyrrolidin-1-yl)ethyl]-3-methanesulfonamido-1H-indazol-7-yl}-7-(4,4-difluorocyclohexyl)-4-oxo-3H,4H-pyrido[2,3-d]pyrimidin-2-yl]-2-(3,5-difluorophenyl)ethyl]-2-[(2S,4S)-9-cyclopropyl-7,8-diazatricyclo[4.3.0.0^2,^4]nona-1(6),8-dien-7-yl]acetamide] are 0.007 nM and greater than 50 nM.
On to `CS(=O)(=O)Nc1nn(CCN2C[C@@H](F)[C@@H](F)C2)c2c(-n3c([C@H](Cc4cc(F)cc(F)c4)NC(=O)Cn4nc(C(F)F)c5c4C(F)(F)[C@@H]4C[C@H]54)nc4nc(C5CCC(F)(F)CC5)ccc4c3=O)ccc(Cl)c12` (atropisomer, axis not shown; (P)) [Example 26, N-[(1S)-1-[(3P)-3-(4-chloro-1-{2-[(3R,4S)-3,4-difluoropyrrolidin-1-yl]ethyl}-3-methanesulfonamido-1H-indazol-7-yl)-7-(4,4-difluorocyclohexyl)-4-oxo-3H,4H-pyrido[2,3-d]pyrimidin-2-yl]-2-(3,5-difluorophenyl)ethyl]-2-[(2S,4R)-9-(difluoromethyl)-5,5-difluoro-7,8-diazatricyclo[4.3.0.0^2,^4]nona-1(6),8-dien-7-yl]acetamide], for which the EC50 in series [1] was found to be 0.011 nM. Besides, the CC50 at 4 days in series [2] is greater than 50 nM.
